Reference: patent US20250170089A1, “ANTIMICROBIAL AMINO ESTERS” (THE HONG KONG POLYTECHNIC UNIVERSITY, priority 2023, published 2025)

Legend:
[1] = Skin sensitization according to ISO 10993-10:2010; details: concentration as high as 3.9 mg/mL
[2] = system: methicillin-resistant Staphylococcus aureus (MRSA); assay: MIC against methicillin-resistant Staphylococcus aureus; assay type: cell-based
[3] = Skin irritation according to ISO 10993-10:2010; details: concentration as high as 3.9 mg/mL
[4] = system: microbes; assay: Rapid bactericidal test (shaking method, ASTM E2149 13a); assay type: cell-based; details: Ala12 diluted to 10 mg/mL with phosphate buffer, contact time 10 mins
Procedure: The Ala12 was diluted to 10 mg/mL with phosphate buffer. The shaking method (see the ASTM standard E2149 13a 2015) was used to detect their antibacterial activity, wherein the PBS group was used as a blank control. The contact time of bacteria treated with Ala12 is 10 mins.

[5] = Dynamic light scattering (DLS) and zeta-potential of self-assembled nanoparticles; assay type: physicochemical
Source text: The dynamic light scattering (DLS) and zeta-potential indicate that […] assembles into nanoparticles with an average size of around 50-200 nm (FIG. 5) and the surface potential of the generated nanoparticle can be +2.15 mV, which means the nanoparticle is positive charged and the hydrophilic -NH2 groups are probably distributed on the outer surfaces.

[6] = system: Candida albicans; assay: MIC against fungi (Candida albicans); assay type: cell-based

## CCCCCCCCCCCCOC(=O)C(C)N (stereo not shown) [Ala12]
[1]
  skin sensitization: completely free
[2]
  MIC: 390 μg/m
[3]
  skin irritation: completely free
[4]
  time within which the amino ester kills microbes: ≤ 10 min
[5]
  surface potential of the generated nanoparticle (zeta-potential): +2.15 mV
[5]; DLS, FIG. 5
  average size of nanoparticles: 50-200 nm
[6]
  MIC: 390 μg/m
